{"source": "patent US12441685B2", "about": "“Compounds and methods for treating cancer” (DANA-FARBER CANCER INSTITUTE, INC., priority 2015, dated 2025)", "origin": "cited, not measured here", "conditions": "Phase II study, patients with NBCCS (Tang et al., 2012)"}
{"smiles": "CS(=O)(=O)c1ccc(C(=O)Nc2ccc(Cl)c(-c3ccccn3)c2)c(Cl)c1", "note": "[vismodegib]", "values": [{"measurement": "participants who ceased treatment due to serious adverse effects", "value": "14 of 26"}]}
